Values joined by “and” are separate entries in the source; they are usually repeats but may differ in a detail not shown here. Identical values can stand only once. “Also recorded” adds a separate entry of the source. Like-named read-outs stand apart in the source and are kept apart here.
What was measured:
[1] = test system: recombinant Tlp3 periplasmic sensory domain peptide; experiment: Amino acid and small molecule array binding assay; design: species or system Campylobacter jejuni; key: Y: positive binding significantly above background; N: binding not significantly above background; details: compounds covalently bound to an epoxide group
Experimental: (§1) The array assay presents the compounds covalently bound to an epoxide group resulting in a high probability of a single molecular orientation. The plate assay relies on non-covalent charge and hydrophobic/hydrophilic interactions for presentation of the molecules offering a different presentation to the array.
(§2) Amino acid and small molecule arrays and plate based binding assays were performed as previously described.. […] SPR experiments were performed using a Biacore T100 biosensor system (GE- healthcare) at 25°C in 1× PBS pH 7.2 at a flow rate of 30 µl/min. […] Amino acids were prepared in 1 × PBS pH 7.2 and serially diluted from 0.0125 to 0.2 mM. The amino acids were loaded to the sensor chip using single-cycle kinetics, i.e. after the injection of five amino acid dilutions the chip was regenerated with EDTA. Subsequently, the chip was re-loaded with Ni^2+ and His-Tlp3 before the injection of the next amino acid to be tested. A 10 min dissociation time was allowed after the addition of each analyte. SPR signals were analyzed using the Biacore Evaluation software to determine KD.

[2] = test system: recombinant Tlp3 periplasmic sensory domain peptide; experiment: 96-well plate binding assay; design: species or system Campylobacter jejuni; key: Y: positive binding significantly above background; N: binding not significantly above background; details: non-covalent presentation
Experimental: as §1, §2

C. jejuni 11168-O = format: cell-based, Campylobacter jejuni; details: for Chemotactic response: nutrient depleted chemotaxis assay, 11168-O vs Δtlp3
C. jejuni 11168-O Δtlp3 = format: cell-based, Campylobacter jejuni; details: for Increase in bacterial numbers around ligand plug, Δtlp3 compared to wild type: repellents; for Viable counts of C. jejuni associated with ligand plug: Δtlp3, plug with 2 mM ligand, 37°C, 4 h; for Reduction in bacterial numbers migrating towards ligand, Δtlp3 compared to wild type: attractants
[3] = test system: recombinant Cj1564 (Tlp3) periplasmic sensory domain peptide; experiment: 1H STD-NMR analysis, single ligand and competition; format: binding, Campylobacter jejuni; details: for STD-NMR binding to Tlp3 (in words): ligand alone with Tlp3; for Binding preference in competition STD experiments: two ligands together with Tlp3
Experimental: Recombinant Tlp3 (1 mg/mL, 100 µL) dissolved in D2O (99.99% D Cambridge Isotopes) containing 50 mM NaCl and 50 mM KH2PO4 and added to various ligands (1 mg/mL, 150 µL ∼150 mole equivalents) also dissolved in D2O (99.99% D Cambridge Isotopes) containing 50 mM NaCl and 50 mM KH2PO4 to give a total volume of 250 µL in a 3 mm NMR tube for NMR analysis. Control samples were prepared in an identical manner without Tlp3 added. All NMR experiments were performed on a Bruker Avance 600 MHz spectrometer, equipped with a 5-mm TXI probe with triple axis gradients at 283 K without sample spinning. ^1H NMR spectra were acquired with 32 scans, a 2 s relaxation delay over a spectral width of 6000 Hz. Solvent suppression of the residual HDO peak was achieved by continuous low-power presaturation pulse during the relaxation delay. […] A 100 µs delay between each soft pulse was applied, resulting in a total saturation time of 2 s and 2 K scans.
Data were obtained with an interspersed acquisition of pseudo-two-dimensional on-resonance and off-resonance spectra in order to minimize the effects of temperature and magnet instability. On- and off-resonance spectra were processed separately, and the final STD-NMR spectrum was obtained by subtracting the individual on- and off-resonance spectra, resulting in less subtraction artefacts. Relative STD effects were calculated according to the equation ASTD = (I0−Isat)/I0 = ISTD/I0 by comparing the intensity of the signals in the STD-NMR spectrum (ISTD) with signal intensities of a reference spectrum (I0). The STD signal with the highest intensity was set to 100% and other STD signals were calculated accordingly. A spin lock field of 10 ms was applied to remove unwanted background protein signals. […] Control STD-NMR experiments were performed using an identical experimental setup and the same ligand concentration but in the absence of the protein.

His-Tlp3 = His-Tlp3 (Campylobacter jejuni, UniProt Q0P864); experiment: biochemical; format: binding; details: for SPR interaction with Tlp3 (in words): two-fold serial dilution between 12.5 and 200 µM
Experimental: as §2
All interactions present were tested with a two-fold serial dilution between 12.5 and 200 µM. (TIF) Click here for additional data file.

[4] = wild type 11168-O, plug with 2 mM ligand, 37°C, 4 h
[5] = Binding Affinity (KD), SPR, 25°C, 1× PBS pH 7.2
Wherever Chemotactic response is given: key: +: positive response (chemoattractant); −: negative response (chemorepellent).

Sequence of His-Tlp3 (Q0P864 entry or part of it): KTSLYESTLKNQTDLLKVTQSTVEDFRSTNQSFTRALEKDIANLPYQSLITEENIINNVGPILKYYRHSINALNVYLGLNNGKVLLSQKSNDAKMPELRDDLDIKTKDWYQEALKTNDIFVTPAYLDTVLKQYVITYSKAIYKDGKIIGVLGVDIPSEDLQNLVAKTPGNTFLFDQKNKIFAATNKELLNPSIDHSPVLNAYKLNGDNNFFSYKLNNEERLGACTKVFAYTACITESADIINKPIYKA

| Compound | Array binding [1] | Plate assay [2] | Chemotactic response (C. jejuni 11168-O) | Viable counts of C. jejuni associated with ligand plug (C. jejuni 11168-O; [4]) | Increase in bacterial numbers around ligand plug, Δtlp3 compared to wild type (C. jejuni 11168-O Δtlp3) | Viable counts of C. jejuni associated with ligand plug (C. jejuni 11168-O Δtlp3) | STD-NMR binding to Tlp3 (in words) ([3]; 283 K) | Reduction in bacterial numbers migrating towards ligand, Δtlp3 compared to wild type (C. jejuni 11168-O Δtlp3) | Kd (His-Tlp3; [5]) | other results |
| --- | --- | --- | --- | --- | --- | --- | --- | --- | --- | --- |
| N=C(N)NCCC[C@H](N)C(=O)O [Arginine] | N | Y | − | 1.3 × 10^6 cfu/ml | 1 log | 6.8 × 10^7 cfu/ml | Binding was observed |  |  | Binding preference in competition STD experiments [3]: preferential binding of arginine over lysine |
| N[C@@H](CC(=O)O)C(=O)O [Aspartate] | N | Y | + | 7.8 × 10^6 cfu/ml |  | 3.7 × 10^3 cfu/ml |  | 3 log |  |  |
| O=C(O)/C=C/C(=O)O [Fumaric Acid] |  | Y | + | 4.14 × 10^6 cfu/ml |  | 9 × 10^2 cfu/ml |  | 4 log |  | Kd (His-Tlp3): > 10000 µM |
| N[C@H]1C(O)O[C@H](CO)[C@@H](O)[C@@H]1O (stereo partly shown) [Glucosamine] |  | Y | − | 1.68 × 10^3 cfu/ml | 3 log | 7.8 × 10^6 cfu/ml | No signals were detected |  | 7.77 µM | Dissociation rate from Tlp3 (in words) (His-Tlp3; SPR): slow disassociation rates |
| CC[C@H](C)[C@H](N)C(=O)O [Isoleucine] | Y | Y | + | 6 × 10^6 cfu/ml |  | 3.6 × 10^2 cfu/ml | Binding was observed | 4 log |  | Binding preference in competition STD experiments [3]: binds preferentially over arginine; also recorded: binds preferentially over lysine |
| NCCCC[C@H](N)C(=O)O [Lysine] | N | Y | − | 2.2 × 10^3 cfu/ml | 2 log | 2.4 × 10^5 cfu/ml | Binding was observed |  | ~2.8 µM and 2.8 µM | Binding affinity of lysine relative to arginine, fold stronger (His-Tlp3; ratio of SPR KD values): ~14 fold |
| O=C(O)CC(O)C(=O)O (stereo not shown) [Malic Acid] |  | Y | + | 9 × 10^5 cfu/ml |  | 1.13 × 10^3 cfu/ml | No signals were detected | 2 log |  | Dissociation rate from Tlp3 (in words) (His-Tlp3; SPR): slow disassociation rates |
| c1ncc2nc[nH]c2n1 [Purine] |  | Y | + | 1.4 × 10^6 cfu/ml |  | 1.08 × 10^5 cfu/ml | Binding was observed | 1 log | 38.3 µM | STD effect of H2 protons, fold lesser than H6 ([3]; pyrimidine ring protons, 283 K): ~5 fold; Binding preference in competition STD experiments [3]: binds preferentially over lysine; also recorded: binds preferentially over arginine |
| O=C(O)CCC(=O)O [Succinic Acid] |  | Y | − |  | 1 log | 2 × 10^7 cfu/ml |  |  | 33.2 µM | Viable counts of C. jejuni associated with ligand plug (C. jejuni 11168-O): 1.5 × 10^6 cfu/ml |
| Cc1ncc(C[n+]2csc(CCO)c2C)c(N)n1 [Thiamine] |  | Y | − |  | 1 log | 9 × 10^6 cfu/ml |  |  | < 50 µM | Viable counts of C. jejuni associated with ligand plug (C. jejuni 11168-O): 4 × 10^5 cfu/ml |
| C[C@H](N)C(=O)O [alanine] |  |  |  |  |  |  |  |  |  | SPR interaction with Tlp3 (in words) (His-Tlp3): No interaction observed |
| NC(=O)C[C@H](N)C(=O)O [asparagine] |  |  |  |  |  |  |  |  |  | SPR interaction with Tlp3 (in words) (His-Tlp3): No interaction observed |
| O=C(O)CCC(=O)C(=O)O [α-ketoglutarate] | Y | Y |  |  |  |  |  |  |  | Kd (His-Tlp3; SPR, 25°C, 1× PBS pH 7.2, read-out: Binding Affinity (KD)): 296 µM; Chemotaxis assay outcome (in words) (C. jejuni 11168-O; data not shown): not definitive |

From PMC3879368, “Characterisation of a Multi-ligand Binding Chemoreceptor CcmL (Tlp3) of Campylobacter jejuni” (PLoS Pathogens, 2014)
